From US20100144708A1, “HETEROCYCLIC COMPOUNDS CONTAINING NITROGEN ATOMS OR PHARMACEUTICALLY ACCEPTABLE SALTS THEREOF, PROCESS FOR THE PREPARATION THEREOF AND PHARMACEUTICAL COMPOSITION COMPRISING THE SAME FOR TREATMENT OF CANCER” (Korea Research Instititute of Bioscience and Biotechnology, priority 2006, published 2010)

Key:
PC-3 (prostate cancer) = assay: Test for inhibition of tumor cell growth (SRB), PC-3; assay type: cell-based, Human; conditions: 48 hours, SRB staining; for GI50: Homo sapiens, read-out: GI50 PC-3 (prostate ancer)
Summary of the method: (§1)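 Cells seeded in RPMI 1640 with 5% FBS, exposed to compound (final […], units as printed) for 48 hours at 37° C with 5% CO2, including a time-zero plate. TCA-fixed, SRB-stained, absorbance at 540 nm as percent of control; GI50 is the 50% growth-inhibition concentration.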

ACHN (kidney cancer) = assay: Test for inhibition of tumor cell growth (SRB), ACHN; assay type: cell-based, Human; conditions: 48 hours, SRB staining; for GI50: Homo sapiens, ACHN
Summary of the method: as §1

[1] = tested on: MBA-MB-231 (breast cancer); assay: Test for inhibition of tumor cell growth (SRB), MBA-MB-231; assay type: cell-based, Human; conditions: 48 hours, SRB staining; for GI50: Homo sapiens
Summary of the method: as §1

NUGC-3 (gastric cancer) = assay: Test for inhibition of tumor cell growth (SRB), NUGC-3; assay type: cell-based, Human; conditions: 48 hours, SRB staining; for GI50: Homo sapiens, NUGC-3
Summary of the method: as §1

[2] = tested on: human prostate cancer cell line PC-3; assay: Test for tumor growth inhibition in animal model (PC-3 xenograft); assay type: in vivo; conditions: 2 mg/kg Q2D, 10 times, intraperitoneal
Method: Female S.P.F BALB/c nude mice (7-week-old) were grafted with 3×10^7 cells/□ of human prostate cancer cell line PC-3, and then intraperitoneally administered with the compound prepared in Example 55 at a daily dosage of 30 mg/kg 20 times. A positive control group was intraperitoneally administered with adriamycin at a daily dosage of 2 mg/kg 10 times once every two days.
The changes in their body weight are shown in FIG. 1, the changes in tumor size are shown in FIG. 2, and the tumor weights measured on the final day (day 21) are shown in FIG. 3.

Row | SMILES | GI50 (PC-3 (prostate cancer)) | GI50 (ACHN (kidney cancer)) | GI50 [1] | GI50 (NUGC-3 (gastric cancer)) | GI50 PC-3 (prostate ancer) (PC-3 (prostate cancer)) | GI50 ACHN (kidney cancer) (ACHN (kidney cancer)) | GI50 MBA-MB-231 (breast cancer) [1] | GI50 NUGC-3 (gastric cancer) (NUGC-3 (gastric cancer)) | deaths [2] | effect of inhibiting tumor growth ([2]; final day (day 21), p<0.01) | reduction of tumor weight ([2]; final day (day 21), p<0.05)
1 | CCCCCCCCCS(=O)(=O)N1CC[N+](C)(Cc2ccccc2)CC1 [Example 103, 1-benzyl-1-methyl-4-(nonane-1-sulfonyl)piperazin-1-ium bromide] | 1.25 µg/mL | > 10 µg/mL | > 10 µg/mL | 3.45 µg/mL | – | – | – | – | – | – | –
2 | CCCCCCCCCS(=O)(=O)N1CC[N+](C)(Cc2ccc(F)cc2)CC1 [Example 104, 1-(4-fluorobenzyl)-1-methyl-4-(nonane-1-sulfonyl)piperazin-1-ium bromide] | 3.45 µg/mL | > 10 µg/mL | > 10 µg/mL | > 10 µg/mL | – | – | – | – | – | – | –
3 | CCCCCCCCCCS(=O)(=O)N1CC[N+](C)(Cc2cccc(C)c2)CC1 [Example 106, 4-(decane-1-sulfonyl)-1-methyl-1-(3-methylbenzyl)piperazin-1-ium bromide] | 0.61 µg/mL | 4.13 µg/mL | 3.56 µg/mL | 1.6 µg/mL | – | – | – | – | – | – | –
4 | CCCCCCCCCCS(=O)(=O)N1CC[N+](C)(Cc2ccc(C)cc2)CC1 [Example 107, 4-(decane-1-sulfonyl)-1-methyl-1-(4-methylbenzyl)piperazin-1-ium bromide] | 1.05 µg/mL | > 10 µg/mL | > 10 µg/mL | 2.72 µg/mL | – | – | – | – | – | – | –
5 | CCCCCCCCCCCCS(=O)(=O)N1CC[N+](C)(Cc2cccc(C)c2)CC1 [Example 108, 4-(dodecane-1-sulfonyl)-1-methyl-1-(3-methylbenzyl)piperazin-1-ium bromide] | 0.45 µg/mL | 1.42 µg/mL | 1.19 µg/mL | 0.65 µg/mL | – | – | – | – | – | – | –
6 | C=CC[N+]1(C)CCN(S(=O)(=O)CCCCCCCCCCC)CC1 [Example 112, 1-allyl-1-methyl-4-(undecane-1-sulfonyl)piperazin-1-ium bromide] | 0.43 µg/mL | 1.69 µg/mL | 1.75 µg/mL | 1.75 µg/mL | – | – | – | – | – | – | –
7 | CCCCCCCCCCCCCCS(=O)(=O)N1CC[N+](CC)(Cc2ccccc2)CC1 [Example 113, 1-benzyl-1-ethyl-4-(tetradecane-1-sulfonyl)piperazin-1-ium bromide] | 0.41 µg/mL | 1.05 µg/mL | 1.23 µg/mL | 1.22 µg/mL | – | – | – | – | – | – | –
8 | CCCCCCCCCCCCCCCCCCS(=O)(=O)N1CC[N+](CC)(Cc2ccc(C(C)(C)C)cc2)CC1 [Example 114, 1-(4-t-butylbenzyl)-1-ethyl-4-(octadecane-1-sulfonyl)piperazin-1-ium bromide] | 2.01 µg/mL | 2.32 µg/mL | 2.24 µg/mL | 3.16 µg/mL | – | – | – | – | – | – | –
9 | CCCCCCCCCCCCCCCCCCS(=O)(=O)N1CC[N+](C)(Cc2ccccc2)CC1 [Example 115, 1-benzyl-1-methyl-4-(octadecane-1-sulfonyl)piperazin-1-ium bromide] | 0.48 µg/mL | 2.01 µg/mL | 0.91 µg/mL | 1.07 µg/mL | – | – | – | – | – | – | –
10 | CCCCCCCCCCCCCCCC(=O)N1CCC[N+](C)(CC)CC1 (centres unmarked) [Example 116, 1-ethyl-1-methyl-4-palmitoyl-1,4-diazepan-1-ium iodide] | 0.36 µg/mL | 0.29 µg/mL | 0.59 µg/mL | 0.25 µg/mL | – | – | – | – | – | – | –
11 | CCCCCCCCCCCC(=O)N1CCC[N+](C)(C)CC1 [Example 117, 4-dodecanoyl-1,1-dimethyl-1,4-diazepan-1-ium iodide] | 0.5 µg/mL | 1.07 µg/mL | 2.68 µg/mL | 0.6 µg/mL | – | – | – | – | – | – | –
12 | C=CC[N+]1(C)CCCN(C(=O)CCCCCCCCCCC)CC1 (centres unmarked) [Example 118, 1-allyl-4-dodecanoyl-1-methyl-1,4-diazepan-1-ium bromide] | 0.78 µg/mL | 2.18 µg/mL | 3.84 µg/mL | 0.87 µg/mL | – | – | – | – | – | – | –
13 | CCCCCCCCCCCC(=O)N1CCC[N+](C)(Cc2ccc(OC)cc2)CC1 (centres unmarked) [Example 119, 4-dodecanoyl-1-(4-methoxybenzyl)-1-methyl-1,4-diazepan-1-ium chloride] | 0.57 µg/mL | 1.48 µg/mL | 2.48 µg/mL | 0.36 µg/mL | – | – | – | – | – | – | –
14 | C=CC[N+]1(C)CCCN(C(=O)CCCCCCCCCCCCCCC)CC1 (centres unmarked) [Example 120, 1-allyl-1-methyl-4-palmitoyl-1,4-diazepan-1-ium bromide] | 0.75 µg/mL | 0.74 µg/mL | 1.44 µg/mL | 0.2 µg/mL | – | – | – | – | – | – | –
15 | CCCCCCCCCCCCCCCC(=O)N1CCC[N+](C)(Cc2ccc(F)cc2)CC1.[Br-] (centres unmarked) [Example 121, 1-(4-fluorobenzyl)-1-methyl-4-palmitoyl-1,4-diazepan-1-him bromide] | – | – | – | – | 0.46 µg/mL | 1.09 µg/mL | 0.83 µg/mL | 0.63 µg/mL | – | – | –
16 | CCCCCCCCCCCCCCCC(=O)N1CCC[N+](C)(C)CC1 [Example 122, 4-hexadecanoyl-1,1-dimethyl-1,4-diazepan-1-ium iodide] | 0.4 µg/mL | 0.4 µg/mL | 0.94 µg/mL | 0.21 µg/mL | – | – | – | – | – | – | –
17 | CCCCCCCCCCCCCC(=O)N1CCC[N+](C)(C)CC1 [Example 123, 1,1-dimethyl-4-tetradecanoyl-1,4-diazepan-1-ium iodide] | 0.36 µg/mL | 0.49 µg/mL | 0.98 µg/mL | 0.08 µg/mL | – | – | – | – | – | – | –
18 | CCCCCCCCCCCCCC(=O)N1CCC[N+](C)(Cc2ccccc2)CC1 (centres unmarked) [Example 124, 1-benzyl-1-methyl-4-tetradecanoyl-1,4-diazepan-1-ium bromide] | 0.45 µg/mL | 1 µg/mL | 1.16 µg/mL | 0.31 µg/mL | – | – | – | – | – | – | –
19 | CCCCCCCCCCCCCCCC(=O)N1CCC[N+](C)(Cc2ccccc2)CC1 (centres unmarked) [Example 125, 1-benzyl-1-methyl-4-palmitoyl-1,4-diazepan-1-ium bromide] | 0.35 µg/mL | 0.8 µg/mL | 0.86 µg/mL | 0.53 µg/mL | – | – | – | – | – | – | –
20 | C=CC[N+]1(C)CCCN(C(=O)CCCCCCCCCCCCC)CC1 (centres unmarked) [Example 127, 1-allyl-1-methyl-4-tetradecanoyl-1,4-diazepan-1-ium bromide] | 0.18 µg/mL | 0.44 µg/mL | 0.45 µg/mL | 0.26 µg/mL | – | – | – | – | – | – | –
21 | CCCCCCCCCCCCCC(=O)N1CCC[N+](C)(Cc2cccc([N+](=O)[O-])c2)CC1 (centres unmarked) [Example 128, 1-methyl-1-(3-nitrobenzyl)-4-tetradecanoyl-1,4-diazepan-1-ium bromide] | 0.18 µg/mL | 0.82 µg/mL | 0.71 µg/mL | 0.46 µg/mL | – | – | – | – | – | – | –
22 | CCCCCCCCCCCCCCCCCC(=O)N1CCC[N+](C)(C)CC1 [Example 129, 1,1-dimethyl-4-stearoyl-1,4-diazepan-1-ium iodide] | 0.24 µg/mL | 0.57 µg/mL | 0.67 µg/mL | 0.26 µg/mL | – | – | – | – | – | – | –
23 | CCCCCCCCCCCCCC(=O)N1CCC[N+](C)(Cc2ccc(F)cc2)CC1 (centres unmarked) [Example 133, 1-(4-fluorobenzyl)-1-methyl-4-tetradecanoyl-1,4-diazepan-1-ium bromide] | 0.45 µg/mL | 1.1 µg/mL | 1.48 µg/mL | 0.94 µg/mL | – | – | – | – | – | – | –
24 | COc1cccc2c1C(=O)c1c(O)c3c(c(O)c1C2=O)C[C@@](O)(C(=O)CO)C[C@@H]3O[C@H]1C[C@H](N)[C@H](O)[C@H](C)O1 [adriamycin] | – | – | – | – | – | – | – | – | four | 74.4% | 69.8%
